Source: patent US5681738A, “Use of 10-oxo-trans-8-decenoic acid in mushroom cultivation” (The Penn State Research Foundation, priority 1992, dated 1997)

System: Agaricus bisporus mycelia
Experiment: Laccase activity of mycelia grown in potato dextrose yeast broth at 25° C.
Format: cell-based, Agaricus bisporus (hybrid off-white)
Description: The commercial mushroom spawn (hybrid off-white), Agaricus bisporus (Lange) Imbach, was obtained from Alpha Spawn Co., Avondale, Pa., and inoculated onto potato dextrose yeast (PDY) agar (Difco) and incubated at 25° C. A pure culture was obtained from the grain spawn grown on petri dishes and re-inoculated into PDY agar and maintained at 25° C. before use.
The mushroom culture was grown on PDY agar or in PDY broth, both containing 0.5% yeast extract. The broth was dispensed into flasks prior to autoclaving, 50 mL. per flask, while 5 mL of sterile ODA solutions were aseptically added into flasks before inoculation.
To prepare ODA solutions, about 18.4 mg (0.1 mmole) of 10-oxo-trans-8-decenoic acid prepared as described above were dissolved in i mL ethanol and diluted with deionized water to 100 mL to give a molar concentration of 10^-3 M, and then diluted in order to add 1.0 mL of the solutions to each flask to give the required final concentrations.
Sterile ODA solutions were aseptically added into the autoclaved agar medium to achieve the desired final ODA concentrations, and then the medium was dispensed into petri dishes, ca 30 ml per dish. The levels of ODA tested included 2×10^-4, 10^-4, 10^-5, 10^-6 and 10^-7 M for both PDY agar and broth. These flasks and dishes were inoculated with 1 mm mycelial plugs from 4-week old cultures and incubated statically at 25° C. for 5 weeks. Each week, ca 300 μL of broth was aseptically taken from the flasks for laccase assay, while the colony diameter of every petri dish was measured using a vernier caliper to calculate the linear growth of the culture.
The activity of laccase was assayed as described in Leonowicz et al., (1981). The reaction mixture consisted of 1.0 ml of 0.04M MES (2-[N-morpholino] ethanesulfonic acid, Sigma)-NaOH buffer, pH 5.3, 200 μL of 0.5 mM syringaldazine ([…], Sigma) in EtOH, and 100 μL of culture broth withdrawn from the flasks making up a final volume of 1.3 mL. The control mixture contained no culture broth. The change in absorbance was monitored for 5 mins at 525 nm. Laccase activity was expressed in units of kat, the conversion of 1 mole of syringaldazine per sec.
Methods for the estimation of total fungal growth include the measurement of dry matter, linear growth, carbon dioxide evolution, chitin, ATP as well as extracellular laccase activity (Cochrane, (1958); Wood, (1979)). In this research the linear growth rate was used to examine the growth of mushroom mycelia on agar plates, while the extracellular laccase activity and dry matter were determined to estimate the growth of mycelia in liquid cultures. Extracellular laccases (p-diphenol: oxygen oxidoreductase, EC 1.10.3.2) produced by various classes of fungi are reported to be involved in biotransformation of lignin and lignosulfonate (Anders et al., (1976)), as well as in the breakdown of cellulose by cellulase (Westermark et al., (1974a); Westermark et al., (1974b); Haars et al., (1980)). Although the role of laccase in growth and development of Agaricus bisporus is not well defined, it has been observed that laccase production correlated with mycelial biomass of this fungus (Wood, (1979); Matcham et al., (1985); Claydon et al., (1988)).

mycelial growth by laccase activity and dry matter (in words) (10^-6 and 10^-5 M (0.184 and 1.84 ppm), liquid culture): stimulated
Compound: O=C/C=C/CCCCCCC(=O)O [ODA, 10-oxo-trans-8-decenoic acid]
LOG [Laccase activity (mkat/ml)] (ODA 2 × 10^-4 M (36.8 ppm), Week 1, control 0.49): 0.25 LOG (mkat/ml)
LOG [Laccase activity (mkat/ml)] (ODA 2 × 10^-4 M (36.8 ppm), Week 2, control 1.19): 1.84 LOG (mkat/ml)
LOG [Laccase activity (mkat/ml)] (ODA 2 × 10^-4 M (36.8 ppm), Week 3, control 1.97): 2.07 LOG (mkat/ml)
LOG [Laccase activity (mkat/ml)] (ODA 2 × 10^-4 M (36.8 ppm), Week 4, control 2.37): 2.15 LOG (mkat/ml)
LOG [Laccase activity (mkat/ml)] (ODA 2 × 10^-4 M (36.8 ppm), Week 5, control 2.74): 2.38 LOG (mkat/ml)
LOG [Laccase activity (mkat/ml)] (ODA 10^-4 M (18.4 ppm), Week 1, control 0.49): 1.04 LOG (mkat/ml)
LOG [Laccase activity (mkat/ml)] (ODA 10^-4 M (18.4 ppm), Week 2, control 1.19): 2.13 LOG (mkat/ml)
LOG [Laccase activity (mkat/ml)] (ODA 10^-4 M (18.4 ppm), Week 3, control 1.97): 2.29 LOG (mkat/ml)
LOG [Laccase activity (mkat/ml)] (ODA 10^-4 M (18.4 ppm), Week 4, control 2.37): 2.38 LOG (mkat/ml)
LOG [Laccase activity (mkat/ml)] (ODA 10^-4 M (18.4 ppm), Week 5, control 2.74): 2.64 LOG (mkat/ml)
LOG [Laccase activity (mkat/ml)] (ODA 10^-5 M (1.84 ppm), Week 1, control 0.49): 1.63 LOG (mkat/ml)
LOG [Laccase activity (mkat/ml)] (ODA 10^-5 M (1.84 ppm), Week 2, control 1.19): 2.62 LOG (mkat/ml)
LOG [Laccase activity (mkat/ml)] (ODA 10^-5 M (1.84 ppm), Week 3, control 1.97): 2.90 LOG (mkat/ml)
LOG [Laccase activity (mkat/ml)] (ODA 10^-5 M (1.84 ppm), Week 4, control 2.37): 3.20 LOG (mkat/ml)
LOG [Laccase activity (mkat/ml)] (ODA 10^-5 M (1.84 ppm), Week 5, control 2.74): 3.53 LOG (mkat/ml)
LOG [Laccase activity (mkat/ml)] (ODA 10^-6 M (0.184 ppm), Week 1, control 0.49): 1.16 LOG (mkat/ml)
LOG [Laccase activity (mkat/ml)] (ODA 10^-6 M (0.184 ppm), Week 2, control 1.19): 2.34 LOG (mkat/ml)
LOG [Laccase activity (mkat/ml)] (ODA 10^-6 M (0.184 ppm), Week 3, control 1.97): 2.76 LOG (mkat/ml)
LOG [Laccase activity (mkat/ml)] (ODA 10^-6 M (0.184 ppm), Week 4, control 2.37): 3.07 LOG (mkat/ml)
LOG [Laccase activity (mkat/ml)] (ODA 10^-6 M (0.184 ppm), Week 5, control 2.74): 3.43 LOG (mkat/ml)
LOG [Laccase activity (mkat/ml)] (ODA 10^-7 M (0.0184 ppm), Week 1, control 0.49): 0.73 LOG (mkat/ml)
LOG [Laccase activity (mkat/ml)] (ODA 10^-7 M (0.0184 ppm), Week 2, control 1.19): 2.15 LOG (mkat/ml)
LOG [Laccase activity (mkat/ml)] (ODA 10^-7 M (0.0184 ppm), Week 3, control 1.97): 2.57 LOG (mkat/ml)
LOG [Laccase activity (mkat/ml)] (ODA 10^-7 M (0.0184 ppm), Week 4, control 2.37): 2.86 LOG (mkat/ml)
LOG [Laccase activity (mkat/ml)] (ODA 10^-7 M (0.0184 ppm), Week 5, control 2.74): 3.08 LOG (mkat/ml)
